The results in this text go back to US20190031599A1, “INDANE DERIVATIVES AS MGLUR7 MODULATORS” (Takeda Pharmaceutical Company Limited, priority 2016, published 2019).

Molecules are shown by their SMILES. Structures can show the parent of a compound that is named as a salt.

The experiment has as its target T1, human mGluR7 (Homo sapiens, UniProt Q14831).
T1 construct: expressed in transfected cells
The experiment is described as follows: mGluR7 assay: CRE-directed luciferase reporter gene assay, reduction of forskolin stimulated cAMP production. The experiment is classed as cell-based. Particulars: stable CHO cell line expressing the CRE-luc reporter and human mGluR7 genes; decrease of forskolin stimulated luminescence; 10-point concentration-response, duplicate wells. How it is done:
The ability of the test compounds to activate mGluR7 was determined by their ability to reduce forskolin stimulated cAMP production. Compounds were assessed in a CRE-directed luciferase reporter gene assay, using a stable CHO cell line expressing the CRE-luc reporter and human mGluR7 genes. In this cell line, production of cAMP stimulated the transcription of the luciferase gene and luciferase activity was then measured in a luminescent enzyme assay (Steady Glo assay; Promega E2550). Activation of mGluR7 decreased the forskolin stimulated luminescence signal.
The day prior to the assay, compounds were serially diluted in DMSO (100× final assay concentration (FAC)), in 384-well plates which were then stored in the dark at room temperature (RT) until use. Cells were seeded at 12.5 k/well in white, clear bottom 384-well plates (Corning 3707) and left for one hour at RT followed by an overnight incubation (37° C.). The following day, the DMSO compound plate was diluted 1:20 (5× FAC) in Opti-MEM I (Life Technologies 11058021). The growth media was removed from the cell plate and replaced with 15 μl Opti-MEM I, followed by a 5 μl addition from the 5× compound plate and a fifteen minute incubation (37° C.). Forskolin (Sigma F3917) was then added to the wells (5 μl of 2.5 μM) and the plate was incubated for five hours (37° C.). During this incubation, the Steady Glo Substrate reagent was warmed to 37° C. Aliquots (11 ml; stored at −20° C.) of this reagent were prepared by dissolving the contents of 1 vial of lyophilised substrate in 100 ml Steady-Glo buffer. A 25 μl addition of the substrate was made to all wells and the plate was incubated for thirty minutes at RT, on a plate shaker (300 rpm; in the dark). Luminescence was then measured using the EnVision Multilabel Reader (Perkin Elmer).
Compound activity was examined using a 10-point, half log concentration-response range and each concentration was tested in duplicate wells. Luminescence values were normalised to ‘maximum’ (forskolin alone) and ‘minimum’ (forskolin in the presence of tool mGluR7 agonist) controls.
On the technique in general: Reporter assays use an easily measured gene product as a stand-in for the process of interest.

T1 sequence (Q14831 35-915): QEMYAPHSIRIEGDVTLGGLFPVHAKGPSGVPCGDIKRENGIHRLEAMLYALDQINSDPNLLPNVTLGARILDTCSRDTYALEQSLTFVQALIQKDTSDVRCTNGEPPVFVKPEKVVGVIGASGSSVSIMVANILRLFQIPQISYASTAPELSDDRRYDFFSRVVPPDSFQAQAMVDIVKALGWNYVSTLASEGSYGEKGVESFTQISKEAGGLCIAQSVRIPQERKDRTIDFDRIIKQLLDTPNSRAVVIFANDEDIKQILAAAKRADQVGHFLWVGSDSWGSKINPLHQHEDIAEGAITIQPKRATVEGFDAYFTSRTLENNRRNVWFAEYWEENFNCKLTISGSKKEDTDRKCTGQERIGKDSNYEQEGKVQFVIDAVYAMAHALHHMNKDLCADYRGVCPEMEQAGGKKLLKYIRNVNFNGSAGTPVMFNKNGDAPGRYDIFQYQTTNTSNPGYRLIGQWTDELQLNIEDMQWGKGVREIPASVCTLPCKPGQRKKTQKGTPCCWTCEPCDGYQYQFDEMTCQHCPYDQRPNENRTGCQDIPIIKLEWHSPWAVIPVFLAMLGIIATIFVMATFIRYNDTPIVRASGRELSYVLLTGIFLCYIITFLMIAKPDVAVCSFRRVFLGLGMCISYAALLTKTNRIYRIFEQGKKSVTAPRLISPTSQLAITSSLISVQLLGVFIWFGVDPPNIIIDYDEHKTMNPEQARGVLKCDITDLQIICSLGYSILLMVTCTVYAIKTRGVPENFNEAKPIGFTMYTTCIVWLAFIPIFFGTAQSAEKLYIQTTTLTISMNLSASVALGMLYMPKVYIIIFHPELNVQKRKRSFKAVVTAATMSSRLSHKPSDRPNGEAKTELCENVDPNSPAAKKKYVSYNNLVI

For `COC1c2ccccc2CC1NC(=O)C(c1ccc(F)cc1)N1CC(F)C1` (single isomer, unassigned) [Example 141, 2-(4-fluorophenyl)-2-(3-fluoroazetidin-1-yl)-N-(trans)-(1-methoxy-2,3-dihydro-1H-inden-2-yl)acetamide], a half-maximal response (EC50) required 39 nM.

With `COC1c2ccccc2CC1NC(=O)C(c1ccc(F)cc1)N1CC(F)C1` (single isomer, unassigned) [Example 142, 2-(4-fluorophenyl)-2-(3-fluoroazetidin-1-yl)-N-(trans)-(1-methoxy-2,3-dihydro-1H-inden-2-yl)acetamide], it took 62 nM to reach a half-maximal effect (EC50). With `COC1c2ccccc2CC1NC(=O)C(c1ccc(F)cc1)N1CC(F)C1` (single isomer, unassigned) [Example 143, 2-(4-fluorophenyl)-2-(3-fluoroazetidin-1-yl)-N-(trans)-(1-methoxy-2,3-dihydro-1H-inden-2-yl)acetamide] the figure was 1250 nM.

Take `COC1c2ccccc2CC1NC(=O)[C@H](NC(=O)C1CC1)c1ccc(F)cc1` (single isomer, unassigned) [Example 144]: the EC50 is 191 nM. `CS(=O)(=O)C1c2ccccc2CC1NC(=O)C(OCC1CC1)c1ccccc1` (single isomer, unassigned) [Example 145, 2-(cyclopropylmethoxy)-N-(trans)-(1-methanesulfonyl-2,3-dihydro-1H-inden-2-yl)-2-phenylacetamide] had an EC50 of 0.6 nM. With `CS(=O)(=O)C1c2ccccc2CC1NC(=O)C(OCC1CC1)c1ccccc1` (single isomer, unassigned) [Example 146, 2-(cyclopropylmethoxy)-N-(trans)-(1-methanesulfonyl-2,3-dihydro-1H-inden-2-yl)-2-phenylacetamide] the figure was 4 nM; with `CS(=O)(=O)C1c2ccccc2CC1NC(=O)C(OCC1CC1)c1ccccc1` (single isomer, unassigned) [Example 147, 2-(cyclopropylmethoxy)-N-(trans)-(1-methanesulfonyl-2,3-dihydro-1H-inden-2-yl)-2-phenylacetamide], 39 nM. `CS(=O)(=O)C1c2ccccc2CC1NC(=O)C(OCC1CC1)c1ccccc1` (single isomer, unassigned) [Example 148, 2-(cyclopropylmethoxy)-N-(trans)-(1-methanesulfonyl-2,3-dihydro-1H-inden-2-yl)-2-phenylacetamide] displayed an EC50 of 16 nM. With `CO[C@H](C(=O)NC1Cc2ccccc2C1S(C)(=O)=O)c1ccccc1` (single isomer, unassigned) [Example 158] the figure was 56 nM; with `CO[C@H](C(=O)NC1Cc2ccccc2C1S(C)(=O)=O)c1ccccc1` (single isomer, unassigned) [Example 159], 25 nM; with `CS(=O)(=O)[C@@H]1c2ccccc2C[C@H]1NC(=O)C(OCC1CC1)c1ccc(F)cc1` (single isomer, unassigned) [Example 161, 2-(cyclopropylmethoxy)-2-(4-fluorophenyl)-N-(trans)-(1-methanesulfonyl-2,3-dihydro-1H-inden-2-yl)acetamide], 2 nM. The value for `CS(=O)(=O)[C@@H]1c2ccccc2C[C@H]1NC(=O)C(OCC1CC1)c1ccc(F)cc1` (single isomer, unassigned) [Example 162, 2-(cyclopropylmethoxy)-2-(4-fluorophenyl)-N-(trans)-(1-methanesulfonyl-2,3-dihydro-1H-inden-2-yl)acetamide] was 2 nM; that for `C[C@@H](C(=O)NC1Cc2ccccc2C1O)c1ccccc1` (stereo in doubt) [Example 1, (2R)—N-((trans)-1-hydroxy-2,3-dihydro-1H-inden-2-yl)-2-phenylpropanamide] was 559 nM; that for `COC1c2ccccc2CC1NC(=O)[C@@H](C)c1ccccc1` (stereo in doubt) [Example 10, (2S)—N-((cis)-1-methoxy-2,3-dihydro-1H-inden-2-yl)-2-phenylpropanamide] was 1030 nM.

With `CCOC1c2ccccc2CC1NC(=O)[C@@H](C)c1ccc(F)cc1` (stereo in doubt) [Example 31, (2S)—N-((trans)-1-ethoxy-2,3-dihydro-1H-inden-2-yl)-2-(4-fluorophenyl)propanamide], a half-maximal response (EC50) required 19 nM.

`COC1c2ccccc2CC1NC(=O)[C@@H](C)c1ccc(F)cc1` (stereo in doubt) [Example 39, (2S)-2-(4-fluorophenyl)-N-(cis)-(1-methoxy-2,3-dihydro-1H-inden-2-yl)propanamide]: a half-maximal response (EC50) required 633 nM. The value for `C[C@H](C(=O)NC1Cc2ccccc2C1O)c1ccc(F)cc1` (stereo in doubt) [Example 61, (2S)-2-(4-fluorophenyl)-N-(trans)-(1-hydroxy-2,3-dihydro-1H-inden-2-yl)propanamide] was 56 nM; that for `COC1c2ccccc2CC1NC(=O)[C@@H](NC(=O)c1cnn(C)c1)c1ccc(F)cc1` (stereo in doubt) [Example 65, (2S)-2-(4-fluorophenyl)-N-(trans)-(1-methoxy-2,3-dihydro-1H-inden-2-yl)-2-[(1-methyl-1H-pyrazol-4-yl)formamido]acetamide] was 4 nM. For `COC1c2ccccc2CC1NC(=O)[C@@H](NC(=O)C1CC1)c1ccc(F)cc1` (stereo in doubt) [Example 66, (2S)-2-(cyclopropylformamido)-2-(4-fluorophenyl)-N-(trans)-(1-methoxy-2,3-dihydro-1H-inden-2-yl)acetamide], the EC50 is 4 nM. Compound `CC1c2ccccc2CC1NC(=O)[C@@H](NC(=O)OC(C)(C)C)c1ccc(F)cc1` (stereo in doubt) [Example 71, tert-butyl N—[(S)-(4-fluorophenyl)[(trans)-(1-methyl-2,3-dihydro-1H-inden-2-yl)carbamoyl]methyl]carbamate] yielded an EC50 of 2 nM. `COC1c2ccccc2CC1NC(=O)[C@@H](NS(C)(=O)=O)c1ccc(F)cc1` (stereo in doubt) [Example 72, (2S)-2-(4-fluorophenyl)-2-methanesulphonamido-N-(trans)-(1-methoxy-2,3-dihydro-1H-inden-2-yl)acetamide]: the half-maximal effective concentration (EC50) was 11 nM. Take `CC1c2ccccc2CC1NC(=O)[C@@H](NS(C)(=O)=O)c1ccc(F)cc1` (stereo in doubt) [Example 85, (2S)-2-(4-fluorophenyl)-2-methanesulfonamido-N-((trans)-1-methyl-2,3-dihydro-1H-inden-2-yl)acetamide]: the EC50 was 26 nM.

Compound `CO[C@H](C(=O)NC1Cc2ccccc2C1S(C)(=O)=O)c1ccccc1` (stereo in doubt) [Example 149, (2S)—N-(trans)-(1-methanesulfonyl-2,3-dihydro-1H-inden-2-yl)-2-methoxy-2-phenylacetamide] came in with an EC50 of 225 nM. `CCS(=O)(=O)C1c2ccccc2CC1NC(=O)[C@@H](OC)c1ccccc1` (stereo in doubt) [Example 150, (2S)—N-(trans)-(1-ethanesulfonyl-2,3-dihydro-1H-inden-2-yl)-2-methoxy-2-phenylacetamide] showed an EC50 of 156 nM. Compound `C[C@H](C(=O)N[C@H]1Cc2ccccc2[C@@H]1N)c1ccccc1` [Example 11, (2S)—N-[(1S,2S)-1-amino-2,3-dihydro-1H-inden-2-yl]-2-phenylpropanamide hydrochloride] gave a concentration for a half-maximal effect (EC50) of 119 nM. In turn, `C[C@H](C(=O)N[C@@H]1Cc2ccccc2[C@H]1N)c1ccccc1` [Example 12, (2S)—N-[(1R,2R)-1-amino-2,3-dihydro-1H-inden-2-yl]-2-phenylpropanamide] registered an EC50 of 290 nM. The value for `CC(=O)N[C@H]1c2ccccc2C[C@@H]1NC(=O)[C@@H](C)c1ccccc1` [Example 13, (2S)—N-[(1S,2S)-1-acetamido-2,3-dihydro-1H-inden-2-yl]-2-phenylpropanamide] was 1200 nM; that for `CCC(C(=O)N[C@H]1Cc2ccccc2[C@@H]1N)c1ccc(F)cc1F` (stereo partly drawn) [Example 14, N-[(1S,2S)-1-amino-2,3-dihydro-1H-inden-2-yl]-2-(2,4-difluorophenyl)butanamide hydrochloride] was 139 nM. With `CCC(C(=O)N[C@@H]1Cc2ccccc2[C@H]1N)c1ccc(F)cc1F` (stereo partly drawn) [Example 17, N-[(1R,2R)-1-amino-2,3-dihydro-1H-inden-2-yl]-2-(2,4-difluorophenyl)butanamide hydrochloride] the figure was 195 nM. With `C[C@H](C(=O)N[C@@H]1Cc2ccccc2[C@H]1NC(=O)OC(C)(C)C)c1ccccc1` [Example 18, tert-butyl N-[(1R,2R)-2-[(2S)-2-phenylpropanamido]-2,3-dihydro-1H-inden-1-yl]carbamate] the figure was 150 nM; with `CO[C@H](C(=O)N[C@H]1Cc2ccccc2[C@@H]1N)c1ccccc1` [Example 19, (2S)—N-[(1S,2S)-1-amino-2,3-dihydro-1H-inden-2-yl]-2-methoxy-2-phenylacetamide hydrochloride], 973 nM.

As a reminder, the EC50 is the concentration at which the effect is half-maximal. High values mean a less potent agent, low ones a more potent agent.
